From PMC5855545, “Role of Disulfide Bonds in Activity and Stability of Tigerinin-1R” (International Journal of Molecular Sciences, 2018)
Entries after “also recorded” stand apart in the source; their conditions may differ.

How the values were obtained:
INS-1 cells [1] = test: Protection against palmitic acid-induced apoptosis (MTT viability); type: cell-based, rat; details: 0.5 mM PA, 24 h
Experimental: Solutions of free fatty acids (FFAs) were prepared. Briefly, 100 mM palmitic acid (PA) stocks (Sigma, St. Louis, MO, USA) were prepared in 0.1 M NaOH at 70 °C. Ten percent (w/v) FFA-free BSA (Roche, Mannheim, Germany) solution was prepared in PBS buffer. A 5 mM FFA/10% BSA solution was prepared by mixing 50 μL FFA to 950 μL 10% BSA in a 60 °C water bath. The above solution was then cooled to room temperature, diluted in RPMI 1640 to 0.5 mM and filtered. Cells were added into 96-well plates (5 × 10^3 cells/well). Complete medium was withdrawn after overnight incubation at 37 °C. One hundred microliters of different peptides corresponding to a serial dilution series (concentrations 10^−9, 10^−7, 10^−5 M) diluted with medium containing 0.5 mM PA, was added for another 24 h. Meanwhile, incubation in fresh medium, with or without PA, were set as positive and negative controls, respectively. At the end of incubation, 20 μL of MTT solution (5 mg/mL in PBS) was added to each well and further incubated at 37 °C for 4 h. Cell viability was determined by dissolving the crystallized MTT with dimethyl sulfoxide (150 μL/well).

[2] = Reversed-phase HPLC retention time (relative hydrophobicity); type: physicochemical; details: RP-HPLC at 25 °C; Zorbax 300 SB-C8 150 × 4.6 mm, linear AB gradient 1% acetonitrile/min, 1 mL/min, A 0.1% aqueous TFA pH 2, B 0.1% TFA in acetonitrile
INS-1 cells [3] = test: Insulin-releasing activity in vitro (rat insulin ELISA); type: cell-based; details: 2.8 mM glucose; for insulin release at 10^−5 M compared with tigerinin-1R: 10^−5 M peptide, 1 h in KRB buffer at 37 °C, triplicate
Experimental: INS-1 cells were harvested with trypsin/EDTA, seeded into 6-well plates (3–5 × 10^5 cells/well), and allowed to attach overnight. Prior to the test, cells were preincubated in 1 mL Krebs-Ringer bicarbonate (KRB) buffer without glucose (115 mMNaCl, 4.7 mMKCl, 1.28 mM CaCl2,1.2 mM KH2PO4, 1.2 mM MgSO4, 10 mM NaHCO3, and 1 g/L BSA, pH 7.4) at 37 °C for 45 min. Cells were then incubated in the absence or presence of peptides for 1 h, using the same buffer with 2.8 mM glucose. The insulin supernatants were collected, and subsequently analyzed using ultrasensitive rat insulin ELISA kits (Mercodia, Sweden). The assay was repeated in triplicate.

[4] = Peptide degradation assay in 10% fetal bovine serum; type: in vitro ADME; details: 200 μM peptide in PBS, 37 °C
Experimental: Peptides dissolved in PBS to a final concentration of 200 μM were incubated with 10% fetal bovine serum at 37 °C. At different time points (0, 60, and 120 min), 20 μL peptide samples were taken and diluted with an equal volume of 0.1% aqueous trifluoroacetic acid (TFA). The samples were then analyzed by RP-HPLC. The experiment was performed on a Shimadzu HPLC system with a Zorbax 300 SB-C8 column (150 × 4.6 mm I.D.; 5 µm particle size, 300 Å pore size; Agilent Technologies, Palo Alto, CA, USA) using a linear AB gradient (1% acetonitrile/min) and a flow rate of 1 mL/min, where solvent A was 0.1% aqueous TFA, pH 2, and solvent B was 0.1% TFA in acetonitrile at 25 °C.

INS-1 cells [5] = test: Measurement of intracellular Ca2+ (Fluo-3 AM, confocal microscopy); type: cell-based, rat; details: 10^−5 M peptide, 2.8 mM glucose; less than 30 mM KCl, significantly greater than glucose alone
Experimental: INS-1 cells (2 × 10^5) were cultured in glass bottom dishes (NEST, Wuxi, China). Following overnight culture, the cells were washed with KRB buffer three times, and then incubated with 5 μM fluorescent Ca^2+ probe Fluo-3 AM solution (Solarbio, Beijng, China). After loading for 30 min and washing three times with KRB buffer, cells were incubated for 15 min in the absence of Fluo-3 AM. KRB buffer supplemented with 2.8 mM glucose containing 10^−5 M peptide was then added. Images of cells were obtained by laser scanning confocal microscope (LSM710, Carl Zeiss, Oberkochen, Germany). The fluorescence was excited at 480 nm at 4 s intervals, and detected at 515 nm. Incubations in the presence of 2.8 mM glucose alone (negative control) or extra 30 mM KCl (positive control) were also carried out individually.

Kunming male mice = test: Glucose tolerance in vivo in overnight-fasted mice; set-up: species or system mouse; details: n = 6
Experimental: Kunming male mice were housed individually in an air-conditioned room (22 ± 2 °C) with a 12 h light/12 h dark cycle, and were handled in accordance with the Guide for Care and Use of Laboratory Animals in China and approved by the animal ethics committee of Jilin University (Approval No. JLUSWLL003, Jilin, China; dated on 10 May 2017). Drinking water and standard laboratory chow were freely available. No adverse effects were observed following administration of the peptides. Age-matched groups (n = 6) of overnight-fasted mice received an intraperitoneal injection of either glucose (18 mmol/kg body weight), tigerinin-1R (75 nmol/kg body weight), or [C11K]tigerinin-1R (75 nmol/kg body weight) individually as control groups, and glucose in combination with tigerinin-1R or glucose in combination with [C11K]tigerinin-1R as experimental groups, respectively. All solutions were administered in 0.9% NaCl (5 mL/kg body weight). Blood samples were collected from the cut tip of the tail vein of conscious mice, before injection and at 15, 30, 60, and 120 min immediately after injection, and glucose was measured using a Sannuo stable blood glucose meter (Changsha, China) using corresponding test strips.

bacteria = details: cited from earlier work
Excerpt: (§1) Tigerinin-1R (Arg–Val–Cys–Ser–Ala–Ile–Pro–Leu–Pro–Ile–Cys–His–NH2) is a cationic peptide containing a disulfide bond that is isolated from the skin secretions of Hoplobatrachus ugulosus. […] In vivo studies have shown that administration of tigerinin-1R or some of its analog ...

high-fat fed mice = details: administration to high-fat fed mice; cited from earlier work
Excerpt: as §1

In the case of `CCCCCCCCCCCCCCCC(=O)O` [PA, palmitic acid], the “viability of INS-1 cells with PA (positive control)” value (INS-1 cells [1]) is reported as 58.24%.
With Ac-RVASAIPLPIAH-NH2 [tigerinin-linear] the “tR (min), retention time during reversed-phase HPLC (relative hydrophobicity)” value [2] was 11.590 min and the “insulin release at 10^−5 M compared with tigerinin-1R” value (INS-1 cells [3]) was “lower insulin-releasing activity than tigerinin-1R”.
For “Ac-RVCSAIPLPIKH-NH2 [[C11K]tigerinin-1R]”, the “stability: RP-HPLC peak area of intact peptide after 60 min” value ([4]; 60 min) was “decreased dramatically” and the “stability: RP-HPLC peak area of intact peptide at/within 120 min” value [4] was “almost disappeared”.
In the case of “RVCSAIPLPICH-amide (C–C) (disulfide) [tigerinin-1R, Arg–Val–Cys–Ser–Ala–Ile–Pro–Leu–Pro–Ile–Cys–His–NH2, cationic 12-mer peptide containing a disulfide bond, from frog skin secretions; parent peptide, synthesized here]”, the “tR (min), retention time during reversed-phase HPLC (relative hydrophobicity)” value [2] is reported as 19.465 min, the “insulin secretion of INS-1 cells at different peptide concentrations” value (INS-1 cells [3]; 10^−8 to 10^−5 M, 1 h in KRB buffer pH 7.4 at 37 °C, compared to 2.8 mM glucose alone, n = 3) is reported as “concentration-dependent manner” and the “concentration of intracellular Ca2+ (Fluo-3 fluorescence)” value (INS-1 cells [5]) is reported as “produced an increase in the concentration of intracellular Ca^2+”. The “plasma glucose concentrations after peptide alone” value (Kunming male mice; 75 nmol/kg peptide i.p. alone, without glucose injection) was “little change in plasma glucose concentrations”, the “glucose tolerance / hypoglycemic ability (plasma glucose)” value (Kunming male mice; 75 nmol/kg peptide i.p. with glucose 18 mmol/kg, 15-120 min) was “improved glucose tolerance; also recorded: higher hypoglycemic ability than [C11K]tigerinin-1R” and the “stability: RP-HPLC peak area of intact peptide at/within 120 min” value [4] was “changed very little”. For the same compound, the antibacterial activity (bacteria) was “lacks antibacterial activity” and the “insulin release and glucose tolerance in high-fat fed mice” value (high-fat fed mice) was “significantly enhanced insulin release and improved glucose tolerance”.
In the case of “CSAIPLPIC-amide (C–C) (disulfide) [tigerinin-cyclic, tigerinin-1R analog retaining only the cyclic moiety]”, the “insulin release at 10^−5 M compared with tigerinin-1R” value (INS-1 cells [3]) is reported as “decrease in insulin-releasing ability”.
